Like-named read-outs stand apart in the source and are kept apart here.
Experiments:
A-549 = assay: SRB cell growth/viability assay, A-549; conditions: for GI50: read-out: A-549 GI50
From the text: (§1) A colorimetric type of assay, using sulforhodamine B (SRB) reaction has been adapted for a quantitative measurement of cell growth and viability: see Skehan, P. A. et al. J. Natl. Cancer Inst., 1990, 82, 1107-1112. This form of the assay employs 96 well cell culture microplates of 9 mm diameter (Faircloth, G. T.; Stewart, D. and Clement, J. J., Journal of Tissue and Culture Methods, 1983, 11, 201-205; Mosmann, T. Journal of Immunological Methods, 1983, 65, 55-63.).
(§2) Most of the cell lines are obtained from American Type Culture Collection (ATCC) derived from different human cancer types. Cells are maintained in RPMI 1640 10% FBS, supplemented with 0.1 g/l penicillin and 0.1 g/l streptomycin sulfate and then incubated at 37° C., 5% CO2 and 98% humidity. For the experiments, cells were harvested from subconfluent cultures using trypsin and resuspended in fresh medium before plating.
(§3) Cells are seeded in 96 well microtiter plates, at 5×10^3 cells per well in aliquots of 195 μl medium, and they are allowed to attach to the plate surface by growing in drug free medium for 18 hours. Afterward, samples are in aliquots of 5 pi in a ranging from 10 to 10-8 μg/ml dissolved in DMSO/EtOH (0.2% in PS buffer). After 48 hours exposure, the antitumour effect are measured by the SRB methodology: cells are fixed by adding 50 μl of cold 50% (w/v) trichloroacetic acid (TCA) and incubating for 60 minutes at 4° C. Plates are washed with deionized water and dried. 100 μl of SRB solution (0.4% w/v in 1% acetic acid) is added to each microtiter well and incubated for 10 minutes at room temperature. Unbound SRB is removed by washing with 1% acetic acid. Plates are air-dried and bound stain is solubilized with Tris buffer. Optical densities are read on an automated spectrophotometric plate reader at a single wavelength of 490 nm.
(§4) The values for mean +/− SD of data from triplicate wells are calculated Some parameters for cellular responses can be calculated: […], TGI=total growth inhibition (cytostatic effect) and LC=cell killing (cytotoxic effect).

HT-29 = assay: SRB cell growth/viability assay, HT-29; conditions: for GI50: read-out: HT-29 GI50
From the text: as §1, §2, §3, §4

[1] = Homo sapiens, A549, 48 h, read-out: A-549 LC50
[2] = Homo sapiens, HT-29, 48 h, read-out: HT-29 LC50

Row | Compound | GI50 (A-549; Homo sapiens, A549, 48 h) [nM] | CC50 (A-549; [1]) [µM] | GI50 (HT-29; Homo sapiens, HT-29, 48 h) [nM] | CC50 (HT-29; [2]) [µM] | CC50 (A-549) [µM] | GI50 (A-549; Table 2, A-549, 48 hours exposure, SRB) [nM] | CC50 (HT-29) [µM] | GI50 (HT-29; Table 2, HT-29, 48 hours exposure, SRB) [nM]
1 | Nc1nccc2c(-c3ccnc(N(C(=O)/C=C/c4ccccc4)C(=O)/C=C/c4ccccc4)n3)c3cccnc3n12 [Compound 24a, N′-biscinnamoyldeoxyvariolin] | 120 | 12 | 4900 | > 120 | – | – | – | –
2 | O=C(C=Cc1ccccc1)Nc1nccc2c(-c3ccnc(N(C(=O)/C=C/c4ccccc4)C(=O)/C=C/c4ccccc4)n3)c3cccnc3n12 [Compound 24b, N′-biscinnamoyl-N-cinnamoyldeoxyvariolin] | 3000 | 75 | 1500 | 75 | – | – | – | –
3 | Nc1nccc2c(-c3ccnc(NC(=O)C(F)(F)F)n3)c3cccnc3n12 [Compound 26, N′-trifluoroacetyldeoxyvariolin] | 270 | 27 | 800 | 110 | – | – | – | –
4 | COc1nccc(-c2c3cccnc3n3c(N)nccc23)n1 [Compound 27, methoxydeoxyvariolin] | 68 | 2.7 | 170 | 34 | – | – | – | –
5 | Nc1nccc2c(-c3ccnc(N4CCCCC4)n3)c3cccnc3n12 [Compound 28a, piperidinyldeoxyvariolin] | 8700 | > 29 | 5800 | > 29 | – | – | – | –
6 | CCNc1nccc(-c2c3cccnc3n3c(N)nccc23)n1 [Compound 28b, N′-ethyldeoxyvariolin] | > 33000 | > 33 | > 33000 | > 33 | – | – | – | –
7 | CCCCN(C)c1nccc(-c2c3cccnc3n3c(N)nccc23)n1 [Compound 28c, N′-butylmethyldeoxyvariolin] | 2900 | 23 | 2900 | 23 | – | – | – | –
8 | Nc1nccc2c(-c3ccnc(NCc4ccccc4)n3)c3cccnc3n12 [Compound 28d, N′-benzyldeoxyvariolin] | 1400 | 27 | 1400 | 22 | – | – | – | –
9 | COc1ccc(CNc2nccc(-c3c4cccnc4n4c(NCc5ccc(OC)cc5)nccc34)n2)cc1 [Compound 29, N′,N-bis(p-methoxybenzyl)deoxyvariolin] | > 97000 | > 97 | > 97000 | > 97 | – | – | – | –
10 | bis-sulfinyldeoxyvariolin [Compound 20] | – | – | – | – | > 130 | 54000 | > 130 | 110000
